From PubChem BioAssay (NCI)
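In this assay, cells in 96-well plates receive the compound at five concentrations for 48 hours. Endpoints are linearly interpolated between the surrounding concentrations. GI50 is the concentration that inhibits growth by half. The concentration for full growth arrest is given as TGI.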

Experiments:
Assay in all cases: NCI tumour cell line growth inhibition, 48 h
MCF7 breast = tested on: MCF7 breast
MDA-MB-435 = tested on: MDA-MB-435
MALME-3M melanoma = tested on: MALME-3M melanoma
KM12 colon = tested on: KM12 colon
K-562 leukemia = tested on: K-562 leukemia
DU-145 prostate = tested on: DU-145 prostate
SF-539 CNS = tested on: SF-539 CNS
SNB-19 CNS = tested on: SNB-19 CNS
HOP-92 NSCLC = tested on: HOP-92 NSCLC
NCI-H460 lung = tested on: NCI-H460 lung
SF-268 CNS = tested on: SF-268 CNS
786-0 renal = tested on: 786-0 renal
M14 melanoma = tested on: M14 melanoma
SW-620 colon = tested on: SW-620 colon
UACC-257 melanoma = tested on: UACC-257 melanoma
HS 578T breast = tested on: HS 578T breast
HOP-62 NSCLC = tested on: HOP-62 NSCLC
U251 CNS = tested on: U251 CNS
SR leukemia = tested on: SR leukemia
HCC-2998 colon = tested on: HCC-2998 colon
SK-MEL-28 melanoma = tested on: SK-MEL-28 melanoma
UACC-62 melanoma = tested on: UACC-62 melanoma
RXF 393 renal = tested on: RXF 393 renal
SNB-75 CNS = tested on: SNB-75 CNS
CAKI-1 renal = tested on: CAKI-1 renal
A498 renal = tested on: A498 renal
SK-MEL-2 melanoma = tested on: SK-MEL-2 melanoma
OVCAR-3 ovarian = tested on: OVCAR-3 ovarian
HCT-15 colon = tested on: HCT-15 colon
SK-MEL-5 melanoma = tested on: SK-MEL-5 melanoma
SK-OV-3 ovarian = tested on: SK-OV-3 ovarian
MDA-MB-231 breast = tested on: MDA-MB-231 breast
HCT-116 colon = tested on: HCT-116 colon
LOX IMVI melanoma = tested on: LOX IMVI melanoma
RPMI-8226 leukemia = tested on: RPMI-8226 leukemia
PC-3 prostate = tested on: PC-3 prostate
OVCAR-8 ovarian = tested on: OVCAR-8 ovarian
TK-10 renal = tested on: TK-10 renal
IGROV1 ovarian = tested on: IGROV1 ovarian
OVCAR-4 ovarian = tested on: OVCAR-4 ovarian
HL-60(TB) leukemia = tested on: HL-60(TB) leukemia
COLO 205 colon = tested on: COLO 205 colon
EKVX NSCLC = tested on: EKVX NSCLC
SN12C renal = tested on: SN12C renal
MOLT-4 leukemia = tested on: MOLT-4 leukemia
OVCAR-5 ovarian = tested on: OVCAR-5 ovarian
BT-549 breast = tested on: BT-549 breast
NCI-H226 lung = tested on: NCI-H226 lung
NCI-H522 lung = tested on: NCI-H522 lung
UO-31 renal = tested on: UO-31 renal
SF-295 CNS = tested on: SF-295 CNS
ACHN renal = tested on: ACHN renal
HT29 colon = tested on: HT29 colon
CCRF-CEM leukemia = tested on: CCRF-CEM leukemia
A549 NSCLC = tested on: A549 NSCLC
NCI-H23 lung = tested on: NCI-H23 lung
NCI/ADR-RES ovarian = tested on: NCI/ADR-RES ovarian
T-47D breast = tested on: T-47D breast

COc1ccc2c(C3=C(c4cn(C)c5ccccc45)C(=O)NC3=O)coc2c1
GI50 (MCF7 breast): 208 nM | TGI (MCF7 breast): 26000 nM | GI50 (MDA-MB-435): 132 nM | TGI (MDA-MB-435): 477 nM | GI50 (MALME-3M melanoma): 12200 nM | TGI (MALME-3M melanoma): 33000 nM | GI50 (KM12 colon): 347 nM | TGI (KM12 colon): 13100 nM | GI50 (K-562 leukemia): 99.7 nM | TGI (K-562 leukemia): > 100000 nM | GI50 (DU-145 prostate): 541 nM | TGI (DU-145 prostate): 19500 nM | GI50 (SF-539 CNS): 272 nM | TGI (SF-539 CNS): 1660 nM | GI50 (SNB-19 CNS): 712 nM | TGI (SNB-19 CNS): 70400 nM | GI50 (HOP-92 NSCLC): 21300 nM | TGI (HOP-92 NSCLC): 44500 nM | GI50 (NCI-H460 lung): 353 nM | TGI (NCI-H460 lung): 11600 nM | GI50 (SF-268 CNS): 1190 nM | TGI (SF-268 CNS): 27900 nM | GI50 (786-0 renal): 524 nM | TGI (786-0 renal): 16500 nM | GI50 (M14 melanoma): 288 nM | TGI (M14 melanoma): 18600 nM | GI50 (SW-620 colon): 176 nM | TGI (SW-620 colon): > 57900 nM | GI50 (UACC-257 melanoma): 1440 nM | TGI (UACC-257 melanoma): 27600 nM | GI50 (HS 578T breast): 234 nM | TGI (HS 578T breast): 3800 nM | GI50 (HOP-62 NSCLC): 416 nM | TGI (HOP-62 NSCLC): 20100 nM | GI50 (U251 CNS): 411 nM | TGI (U251 CNS): 13000 nM | GI50 (SR leukemia): 84.9 nM | TGI (SR leukemia): 8680 nM | GI50 (HCC-2998 colon): 650 nM | TGI (HCC-2998 colon): 10900 nM | GI50 (SK-MEL-28 melanoma): 4950 nM | TGI (SK-MEL-28 melanoma): 35000 nM | GI50 (UACC-62 melanoma): 186 nM | TGI (UACC-62 melanoma): 16600 nM | GI50 (RXF 393 renal): 215 nM | TGI (RXF 393 renal): 1240 nM | GI50 (SNB-75 CNS): 148 nM | TGI (SNB-75 CNS): 710 nM | GI50 (CAKI-1 renal): 160 nM | TGI (CAKI-1 renal): 17300 nM | GI50 (A498 renal): 7450 nM | TGI (A498 renal): 25500 nM | GI50 (SK-MEL-2 melanoma): 191 nM | TGI (SK-MEL-2 melanoma): 931 nM | GI50 (OVCAR-3 ovarian): 193 nM | TGI (OVCAR-3 ovarian): 787 nM | GI50 (HCT-15 colon): 172 nM | TGI (HCT-15 colon): 24400 nM | GI50 (SK-MEL-5 melanoma): 422 nM | TGI (SK-MEL-5 melanoma): 7300 nM | GI50 (SK-OV-3 ovarian): 368 nM | TGI (SK-OV-3 ovarian): 47200 nM | GI50 (MDA-MB-231 breast): 632 nM | TGI (MDA-MB-231 breast): 8110 nM | GI50 (HCT-116 colon): 267 nM | TGI (HCT-116 colon): 12100 nM | GI50 (LOX IMVI melanoma): 558 nM | TGI (LOX IMVI melanoma): 16600 nM | GI50 (RPMI-8226 leukemia): 415 nM | TGI (RPMI-8226 leukemia): 12600 nM | GI50 (PC-3 prostate): 471 nM | TGI (PC-3 prostate): > 100000 nM | GI50 (OVCAR-8 ovarian): 462 nM | TGI (OVCAR-8 ovarian): 16500 nM | GI50 (TK-10 renal): 13600 nM | TGI (TK-10 renal): 59700 nM | GI50 (IGROV1 ovarian): 700 nM | TGI (IGROV1 ovarian): 24400 nM | GI50 (OVCAR-4 ovarian): 6910 nM | TGI (OVCAR-4 ovarian): 65900 nM | GI50 (HL-60(TB) leukemia): 155 nM | TGI (HL-60(TB) leukemia): 865 nM | GI50 (COLO 205 colon): 289 nM | TGI (COLO 205 colon): 1310 nM | GI50 (EKVX NSCLC): 593 nM | TGI (EKVX NSCLC): > 88400 nM | GI50 (SN12C renal): 715 nM | TGI (SN12C renal): 15300 nM | GI50 (MOLT-4 leukemia): 424 nM | TGI (MOLT-4 leukemia): 33200 nM | GI50 (OVCAR-5 ovarian): 901 nM | TGI (OVCAR-5 ovarian): 30700 nM | GI50 (BT-549 breast): 847 nM | TGI (BT-549 breast): 18200 nM | GI50 (NCI-H226 lung): 1520 nM | TGI (NCI-H226 lung): 17700 nM | GI50 (NCI-H522 lung): 188 nM | TGI (NCI-H522 lung): 754 nM | GI50 (UO-31 renal): 468 nM | TGI (UO-31 renal): 23500 nM | GI50 (SF-295 CNS): 469 nM | TGI (SF-295 CNS): 15100 nM | GI50 (ACHN renal): 798 nM | TGI (ACHN renal): 15500 nM | GI50 (HT29 colon): 300 nM | TGI (HT29 colon): 4830 nM | GI50 (CCRF-CEM leukemia): 286 nM | TGI (CCRF-CEM leukemia): 13700 nM | GI50 (A549 NSCLC): 1000 nM | TGI (A549 NSCLC): > 100000 nM | GI50 (NCI-H23 lung): 804 nM | TGI (NCI-H23 lung): 23600 nM | GI50 (NCI/ADR-RES ovarian): 207 nM | TGI (NCI/ADR-RES ovarian): 15000 nM | GI50 (T-47D breast): 430 nM | TGI (T-47D breast): 45500 nM
